Values joined by “and” are separate entries in the source; they are usually repeats but may differ in a detail not shown here. Identical values can stand only once. Inconclusive results and toxic doses are left out. Rule as the data show it: active = T/C of 150% or more; inactive = T/C below 125%.
Test system: L1210 leukemia ip in BDF1 mice, survival T/C
Assay: NCI In Vivo Anticancer Drug Screen. Data for tumor model L1210 Leukemia (intraperitoneal) in B6D2F1 (BDF1) mice
Conditions: endpoint: mean survival time, higher = longer survival
Summary of the method: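 Tumor was transplanted into mice, which were then dosed with test compound or vehicle alone. Survival was recorded for each group, and the treated figure was expressed relative to the control figure.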

[1] = dose: 100.0 mg/kg/injection, schedule: Q04DX003 (ip), vehicle: Klucel (hydroxypropylcellulose) (HPC)
[2] = dose: 200.0 mg/kg/injection, schedule: Q04DX003 (ip), vehicle: Klucel (hydroxypropylcellulose) (HPC)
[3] = dose: 400.0 mg/kg/injection, schedule: Q04DX003 (ip), vehicle: Klucel (hydroxypropylcellulose) (HPC)
[4] = dose: 100.0 mg/kg/injection, schedule: Q01DX009 (ip), vehicle: Klucel (hydroxypropylcellulose) (HPC)
[5] = dose: 200.0 mg/kg/injection, schedule: Q01DX009 (ip), vehicle: Klucel (hydroxypropylcellulose) (HPC)
[6] = dose: 400.0 mg/kg/injection, schedule: Q01DX009 (ip), vehicle: Klucel (hydroxypropylcellulose) (HPC)
[7] = dose: 100.0 mg/kg/injection, schedule: Q04DX003 (ip), vehicle: saline with Tween-80
[8] = dose: 200.0 mg/kg/injection, schedule: Q04DX003 (ip), vehicle: saline with Tween-80
[9] = dose: 400.0 mg/kg/injection, schedule: Q04DX003 (ip), vehicle: saline with Tween-80
[10] = dose: 100.0 mg/kg/injection, schedule: Q04DX002 (ip), vehicle: saline
[11] = dose: 200.0 mg/kg/injection, schedule: Q04DX002 (ip), vehicle: saline

Measured: T/C

CCCCOC(=O)CNC(=O)N(CC)C(=NCC)c1ccc(NC(=O)c2ccc(C(=O)Nc3ccc(C(=NCC)N(CC)C(=O)NCC(=O)OCCCC)cc3)cc2)cc1
active: dose: 7.5 mg/kg/injection, schedule: Q01DX015 (ip), vehicle: methylcellulose (MC) 162 % of control and 189 % of control
inactive: dose: 1.87 mg/kg/injection, schedule: Q01DX015 (ip), vehicle: methylcellulose (MC) 106 % of control | dose: 15.0 mg/kg/injection, schedule: Q01DX015 (ip), vehicle: methylcellulose (MC) 121 % of control

Cc1ccc(Oc2ccc(C(=O)O)cc2)cc1
inactive: [1] 96 % of control | [2] 102 % of control | [3] 103 % of control

O=C1C=CC(=O)C2C3CC(C4OC34)C12 (stereo not drawn)
inactive: dose: 25.0 mg/kg/injection, schedule: Q01DX009 (ip), vehicle: saline with Tween-80 102 % of control | dose: 50.0 mg/kg/injection, schedule: Q01DX009 (ip), vehicle: saline with Tween-80 94 % of control | dose: 100.0 mg/kg/injection, schedule: Q01DX009 (ip), vehicle: saline with Tween-80 100 % of control and 89 % of control

CCOCCN1C=C/C(=C/C=C/c2cc[n+](CCOCC)c3ccccc23)c2ccccc21
inactive: dose: 0.31 mg/kg/injection, schedule: Q04DX003 (ip), vehicle: saline 98 % of control | dose: 0.45 mg/kg/injection, schedule: Q01DX009 (ip), vehicle: saline 104 % of control | dose: 0.62 mg/kg/injection, schedule: Q04DX003 (ip), vehicle: saline 121 % of control | dose: 0.9 mg/kg/injection, schedule: Q01DX009 (ip), vehicle: saline 118 % of control | dose: 1.25 mg/kg/injection, schedule: Q01DX001 (ip), vehicle: saline 96 % of control | dose: 1.25 mg/kg/injection, schedule: Q04DX003 (ip), vehicle: saline 111 % of control | dose: 1.8 mg/kg/injection, schedule: Q04DX003 (ip), vehicle: saline 98 % of control

CCC1N2CCc3cc(OC)c(OC)cc3C2CCC1(O)Cc1ccccn1 (stereo not drawn)
inactive: dose: 100.0 mg/kg/injection, schedule: Q04DX003 (ip), vehicle: carboxymethylcellulose (CMC) 101 % of control | dose: 200.0 mg/kg/injection, schedule: Q04DX003 (ip), vehicle: carboxymethylcellulose (CMC) 101 % of control

O=C1CCC(CCl)O1 (stereo not drawn)
inactive: dose: 75.0 mg/kg/injection, schedule: Q01DX009 (ip), vehicle: other 100 % of control | dose: 100.0 mg/kg/injection, schedule: Q04DX002 (ip), vehicle: other 93 % of control | dose: 150.0 mg/kg/injection, schedule: Q01DX009 (ip), vehicle: other 104 % of control | dose: 200.0 mg/kg/injection, schedule: Q04DX002 (ip), vehicle: other 93 % of control | dose: 300.0 mg/kg/injection, schedule: Q01DX009 (ip), vehicle: other 96 % of control | dose: 400.0 mg/kg/injection, schedule: Q04DX002 (ip), vehicle: other 110 % of control

Cc1ccc(CCO)c(C)c1
inactive: [4] 92 % of control | [1] 92 % of control | [5] 94 % of control | [2] 92 % of control | [6] 90 % of control | [3] 103 % of control

CCCCCC[Si](C)(C)C
inactive: dose: 100.0 mg/kg/injection, schedule: Q01DX001 (ip), vehicle: carboxymethylcellulose (CMC) 89 % of control | dose: 200.0 mg/kg/injection, schedule: Q01DX001 (ip), vehicle: carboxymethylcellulose (CMC) 91 % of control | dose: 400.0 mg/kg/injection, schedule: Q01DX001 (ip), vehicle: carboxymethylcellulose (CMC) 89 % of control

C=CCNC(=O)CS(=O)(=O)c1ccc(C)cc1
inactive: [7] 94 % of control | [8] 100 % of control | [9] 96 % of control

CCCOC(=O)C#CC(=O)OCCC
inactive: dose: 1.56 mg/kg/injection, schedule: Q01DX001 (ip), vehicle: carboxymethylcellulose (CMC) 101 % of control | dose: 1.56 mg/kg/injection, schedule: Q01DX009 (ip), vehicle: carboxymethylcellulose (CMC) 93 % of control | dose: 1.56 mg/kg/injection, schedule: Q04DX002 (ip), vehicle: carboxymethylcellulose (CMC) 92 % of control and 98 % of control | dose: 1.56 mg/kg/injection, schedule: Q04DX003 (ip), vehicle: carboxymethylcellulose (CMC) 101 % of control | dose: 3.13 mg/kg/injection, schedule: Q01DX001 (ip), vehicle: carboxymethylcellulose (CMC) 94 % of control | dose: 3.13 mg/kg/injection, schedule: Q01DX009 (ip), vehicle: carboxymethylcellulose (CMC) 92 % of control and 86 % of control | dose: 3.13 mg/kg/injection, schedule: Q04DX002 (ip), vehicle: carboxymethylcellulose (CMC) 92 % of control and 98 % of control | dose: 3.13 mg/kg/injection, schedule: Q04DX003 (ip), vehicle: carboxymethylcellulose (CMC) 98 % of control | dose: 6.25 mg/kg/injection, schedule: Q01DX001 (ip), vehicle: carboxymethylcellulose (CMC) 97 % of control | dose: 6.25 mg/kg/injection, schedule: Q01DX009 (ip), vehicle: carboxymethylcellulose (CMC) 93 % of control and 89 % of control | dose: 6.25 mg/kg/injection, schedule: Q04DX002 (ip), vehicle: carboxymethylcellulose (CMC) 103 % of control and 104 % of control | dose: 6.25 mg/kg/injection, schedule: Q04DX003 (ip), vehicle: carboxymethylcellulose (CMC) 106 % of control

O=C(OCc1ccccc1)C1CCCN1 (stereo not drawn)
inactive: dose: 25.0 mg/kg/injection, schedule: Q01DX009 (ip), vehicle: water 104 % of control | dose: 25.0 mg/kg/injection, schedule: Q04DX003 (ip), vehicle: water 109 % of control | dose: 50.0 mg/kg/injection, schedule: Q01DX009 (ip), vehicle: water 97 % of control | dose: 50.0 mg/kg/injection, schedule: Q04DX003 (ip), vehicle: water 96 % of control | dose: 100.0 mg/kg/injection, schedule: Q01DX009 (ip), vehicle: water 97 % of control | [10] 100 % of control | dose: 100.0 mg/kg/injection, schedule: Q04DX003 (ip), vehicle: water 102 % of control | dose: 200.0 mg/kg/injection, schedule: Q01DX009 (ip), vehicle: water 102 % of control | [11] 96 % of control | dose: 200.0 mg/kg/injection, schedule: Q04DX003 (ip), vehicle: water 102 % of control | dose: 400.0 mg/kg/injection, schedule: Q01DX009 (ip), vehicle: water 103 % of control | dose: 400.0 mg/kg/injection, schedule: Q04DX003 (ip), vehicle: water 109 % of control

CCCCCCCCCC(=O)N1CCC(C)CC1
inactive: [10] 111 % of control | [11] 104 % of control | dose: 400.0 mg/kg/injection, schedule: Q04DX002 (ip), vehicle: saline 101 % of control

CC(=O)Nc1ccc(NC(=O)Nc2cc(Cl)ccc2C)cc1
inactive: [4] 91 % of control | [5] 93 % of control | [6] 96 % of control

O=C(c1ccccc1)c1ccc(Cl)c(Cl)c1
inactive: [1] 98 % of control | [2] 89 % of control | [3] 93 % of control

Cc1c(C(C)(C(=O)O)c2c(C)n(C)c3ccccc23)c2ccccc2n1C
inactive: dose: 50.0 mg/kg/injection, schedule: Q01DX001 (ip), vehicle: other 96 % of control | dose: 100.0 mg/kg/injection, schedule: Q01DX001 (ip), vehicle: other 93 % of control | dose: 200.0 mg/kg/injection, schedule: Q01DX001 (ip), vehicle: other 91 % of control | dose: 400.0 mg/kg/injection, schedule: Q01DX001 (ip), vehicle: other 96 % of control

Cn1c2ccccc2c(=O)c2cc(N)ccc21
inactive: dose: 100.0 mg/kg/injection, schedule: Q04DX003 (ip), vehicle: saline 95 % of control | dose: 200.0 mg/kg/injection, schedule: Q04DX003 (ip), vehicle: saline 98 % of control | dose: 400.0 mg/kg/injection, schedule: Q04DX003 (ip), vehicle: saline 104 % of control

CCCC(C)OC(=O)Nc1cccc(OC(=O)NC)c1 (stereo not drawn)
inactive: [7] 102 % of control | [8] 98 % of control | [9] 101 % of control

O=S(=O)(F)/C=C/c1ccccc1
inactive: dose: 15.0 mg/kg/injection, schedule: Q01DX015 (ip), vehicle: saline 96 % of control | dose: 30.0 mg/kg/injection, schedule: Q01DX015 (ip), vehicle: saline 96 % of control | dose: 60.0 mg/kg/injection, schedule: Q01DX015 (ip), vehicle: saline 100 % of control | dose: 120.0 mg/kg/injection, schedule: Q01DX015 (ip), vehicle: saline 96 % of control
